Measurements reported in US20140221460A1, “METHOD FOR IDENTIFYING MODULATORS OF HCV TRANSLATION OR REPLICATION INVOLVING THE NS5B POLYPEPTIDE AND A PSEUDOKNOT” (priority 2011, published 2014).

Key:
[1] = test system: sub-genomic replicon, genotype 1b (Con1b); experiment: Sub-genomic replicon assay (luciferase); format: cell-based, hepatitis C virus; conditions: FIG. 8
Procedure: This assay uses a sub-genomic replicon analogous to that described by Lohmann (Lohmann et al., 1999). As above, we co-transfect an RNA encoding renilla […] luciferase to allow normalization of transfection levels. In these assays we usually transfect the sub-genomic replicon (and renilla) RNA 24 hours before addition of the oligonucleotides.
In this assay we investigated inhibition of luciferase gene activity encoding by the sub-genomic replicon and the influence of prior transfection of oligonucleotides directed against SL9266 or SL9571. The sub-genomic replicon is a genotype 1b sequences (Con1b) and directly complementary oligonucleotides directed against SL9266 (labelled anti SL9266_C) inhibit replication by ˜70% (see FIG. 8).

[2] = test system: translation of hepatitis C virus; experiment: Translation assay with bicistronic luciferase reporter, co-transfected with oligonucleotides; format: cell-based; conditions: Huh-7.5 cells, added at 1600 nM, normalized to untreated samples
Description: The translation assay uses the bicistronic reporter gene system described in Example 1. In brief, a firefly luciferase reporter gene is under the translational control of the HCV internal ribosome entry site (IRES) as part of the complete 5′ untranslated region of HCV. The luciferase gene is followed by an IRES from an unrelated virus (encephalomyocarditis virus; EMCV) which drives expression of the RNA dependent RNA polymerase (RdRp) of HCV (the NS5B protein) which, in turn, is followed by the HCV 3′ untranslated region (3′ UTR).
All experiments are routinely conducted in human hepatoma cells—Huh-7.5. This is the cell line in which HCV replicates. However, we have also investigated the bicistronic reporter system in HepG2, HeLa and murine cell lines, as well as in cell free translation systems supplemented with Huh-7.5 cell extracts.
The readout of the translation assay is luciferase activity. To control for differences in transfection we co-transfected a separate plasmid encoding renilla luciferase and normalize all firefly results to this.
The translation inhibition assay is typically conducted by co-transfecting RNA generated in vitro from the bicistronic reporter plasmid with oligonucleotides to be tested. Assays for luciferase are routinely conducted four hours post transfection.

[3] = test system: genotype 2a JFH-1 hepatitis C virus; experiment: Virus production / virus replication assay (HCVcc, NS5A immunofocal staining); format: cell-based; conditions: JFH-1 in Huh-7.5 cells, compared to untreated cells, FIG. 9
Procedure: This assay uses the HCVcc system that measures the production of infectious genotype 2a JFH-1 hepatitis C virus as described previously (Wakita et al., 2005). In this assay oligonucleotides directed against RNA sequences or structures are transfected into Huh-7.5 cells and a known amount of virus added 4 hours later. After 24 hours incubation the cell sheet is fixed and virus replication quantified by immunofocal staining for virus antigen (in this instance the NS5A protein). Infected cells are counted using a fluorescence microscope.

## 5′-ACGCTGTGAAAAATGTC-3′ [JFH-1 anti-SL9266 LNA oligonucleotide]
[1]
  inhibition of replication (replicon luciferase activity), in words: only partially inhibitory

## 5′-GCACAGCGCAAGTATGTTA-3′ [Randomised LNA oligonucleotide]
[2]
  inhibition of translation (maximum): ~20%
[3]
  influence on virus replication, in words: little or no influence

## 5′-GGGCACGAGACAGGCTGTGAT-3′ [Con1b anti-SL9266 LNA oligonucleotide]
[1]
  inhibition of replication (replicon luciferase activity): ~70%
